Literature values in patent US8644910B2, “Imaging protocols” (Biosensors International Group, Ltd., priority 2005, dated 2014).
Like-named read-outs stand apart in the source and are kept apart here.

Legend:
[1] = 600 MBq, common bone scan
[2] = administration to lactating women
[3] = not given; remark: listed apart in the source
[4] = stored at 15-25° C. before and after reconstitution
[5] = prepared product

## O=P(O)(O)CP(=O)(O)O [^99mTc-MDP, medronate, metal not drawn]
[1]
  effective dose: 3 mSv

## [Na+].[O]=[Tc](=[O])(=[O])[O-] [^99mTc-pertechnetate, Sodium pertechnetate]
[2]
  breast feeding interruption advised: brief interruption (hours to days)

## N=C(N)NCc1cccc([131I])c1 [^123I-metaiodobenzylguanidine, metaiodobenzylguanidine]
[2]
  breast feeding interruption advised: brief interruption (hours to days)

## [99Tc].[C-]#[N+]CC(C)(C)OC.[C-]#[N+]CC(C)(C)OC.[C-]#[N+]CC(C)(C)OC.[C-]#[N+]CC(C)(C)OC.[C-]#[N+]CC(C)(C)OC.[C-]#[N+]CC(C)(C)OC [^99mTc-Sestamibi, technetium-99m-methoxyisobutylisonitrile]
At exercise
  Myocardial uptake: 1.5 % of the injected dose
At rest
  Myocardial uptake: 1.2 % of the injected dose
[3]; in 48 hours
  cleared through the feces: approximately thirty-three
[3]; in vivo
  excreted in the urine: Twenty-seven
  major pathway for clearance: hepatobiliary system
  metabolism: excreted without any evidence of metabolism
[4]
  time for use after preparation: ≤ 6 h

## O=C([O-])CC(O)(CC(=O)[O-])C(=O)[O-].[Ga+3] [^67Ga-citrate, Gallium Citrate]
[2]
  breast feeding interruption advised: Complete cessation

## [I-].[Na+] [^123I-sodium iodide, sodium iodide]
[2]
  breast feeding interruption advised: Complete cessation

## Technetium Tc 99m Arcitumomab (CEA-Scan)
[5]
  shelf life: ≤ 4 h

## [Cl][201Tl] [^201Tl, Tl-201-thallous chloride]
[2]
  breast feeding interruption advised: brief interruption (hours to days)
